US20240189318A1, “THERAPEUTIC REGIMENS OF AN INHIBITOR OF THE ENZYMATIC ACTIVITY OF BRG1 AND BRM” (FOGHORN THERAPEUTICS INC., priority 2021, published 2024)

Assays:
[1] = molecular target: CYP2C9 (Homo sapiens, UniProt P11712); assay: Depletion by recombinant CYP enzyme, CYP2C9; assay type: in vitro ADME; design: from tissue; host or cells: pooled human liver microsomes; details: recombinant 2C9
[2] = system: Uveal melanoma cell lines, prostate cancer cells, acute leukemia cells, histocytic lymphoma cells; assay: 3-day growth inhibition, all cell lines of Table 6; assay type: cell-based; details: 3 days
[3] = molecular target: T1, CYP2C19 (Homo sapiens, UniProt P33261); assay: CYP enzyme inhibition in pooled human liver microsomes, CYP2C19; details: for inhibition at 30 µM: human, microsomes, Enzyme activity (% inhibition), CYP2C19, probe S-Mephenytoin
[4] = molecular target: CYP2D6 (Homo sapiens, UniProt P10635); assay: CYP enzyme inhibition in pooled human liver microsomes, CYP2D6; details: for inhibition at 30 µM: human, microsomes, Enzyme activity (% inhibition), CYP2D6, probe Dextromethorphan
[5] = system: 3A4/5; assay: Selective chemical inhibition of compound of formula (I) depletion in human liver microsomes, CYP3A4/5; details: reaction phenotyping
[6] = molecular target: T2, CYP2B6 (Homo sapiens, UniProt P20813); assay: Depletion by recombinant CYP enzyme, CYP2B6; assay type: in vitro ADME; design: from tissue; host or cells: pooled human liver microsomes; details: recombinant 2B6; 0.1 μM
T2 sequence (P20813 1-491): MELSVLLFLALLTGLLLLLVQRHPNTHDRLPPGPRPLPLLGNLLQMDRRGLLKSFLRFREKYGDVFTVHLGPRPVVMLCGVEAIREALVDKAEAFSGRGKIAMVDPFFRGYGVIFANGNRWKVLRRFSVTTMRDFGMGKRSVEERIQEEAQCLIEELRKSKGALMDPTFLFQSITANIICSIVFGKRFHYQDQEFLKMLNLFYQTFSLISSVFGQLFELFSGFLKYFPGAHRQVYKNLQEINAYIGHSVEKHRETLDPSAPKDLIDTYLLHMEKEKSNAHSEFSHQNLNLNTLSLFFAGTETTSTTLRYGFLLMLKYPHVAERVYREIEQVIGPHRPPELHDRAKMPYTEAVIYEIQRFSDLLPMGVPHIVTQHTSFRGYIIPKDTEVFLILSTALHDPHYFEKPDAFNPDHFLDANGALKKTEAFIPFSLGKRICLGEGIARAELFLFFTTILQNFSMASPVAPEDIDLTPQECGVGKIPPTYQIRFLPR

[7] = molecular target: T3, CYP1A2 (Homo sapiens, UniProt P05177); assay: Depletion by recombinant CYP enzyme, CYP1A2; assay type: in vitro ADME; design: from tissue; host or cells: pooled human liver microsomes; details: recombinant 1A2
T3 sequence (P05177 1-516): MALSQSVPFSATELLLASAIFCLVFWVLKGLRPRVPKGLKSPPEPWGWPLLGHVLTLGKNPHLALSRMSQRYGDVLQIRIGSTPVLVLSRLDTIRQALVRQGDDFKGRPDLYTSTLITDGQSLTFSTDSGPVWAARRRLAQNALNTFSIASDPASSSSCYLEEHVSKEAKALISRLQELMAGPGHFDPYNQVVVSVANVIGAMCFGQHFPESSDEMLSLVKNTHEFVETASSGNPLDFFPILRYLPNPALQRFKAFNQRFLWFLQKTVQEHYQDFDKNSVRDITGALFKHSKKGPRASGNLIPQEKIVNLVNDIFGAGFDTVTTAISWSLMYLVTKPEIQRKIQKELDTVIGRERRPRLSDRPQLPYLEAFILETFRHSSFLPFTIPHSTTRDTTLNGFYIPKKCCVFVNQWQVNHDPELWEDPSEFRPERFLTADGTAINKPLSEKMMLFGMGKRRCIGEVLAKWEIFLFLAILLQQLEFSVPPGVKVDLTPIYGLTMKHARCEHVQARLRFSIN

[8] = molecular target: T2, CYP2B6; assay: CYP enzyme inhibition in pooled human liver microsomes, CYP2B6; details: for inhibition at 30 µM: human, microsomes, Enzyme activity (% inhibition), CYP2B6, probe Efavirenz
[9] = system: 92-1 cells; assay: 3-day cell proliferation assay (CellTiter-Glo); details: Homo sapiens, 72 h, read-out: mean IC50, cell proliferation
[10] = system: CYP2C19 mRNA; assay: CYP mRNA level in cultured human hepatocytes, CYP2C19; assay type: in vitro ADME; details: tested concentrations up to 50 nM
[11] = system: CYP3A4/5; assay: CYP enzyme inhibition in pooled human liver microsomes, CYP3A4/5; details: for inhibition at 10 µM / inhibition at 30 µM: Enzyme activity (% inhibition), CYP3A4/5
[12] = molecular target: T4, 2C19 (Homo sapiens, UniProt P33261); assay: Selective chemical inhibition of compound of formula (I) depletion in human liver microsomes, CYP2C19; assay type: in vitro ADME; details: reaction phenotyping
T4 construct: from tissue; host or cells: human liver microsomes

[13] = system: 249 other ATPases; assay: Additional profiling: binding to other ATPases in cells
[14] = molecular target: T1, CYP2C19; assay: Depletion by recombinant CYP enzyme, CYP2C19; assay type: in vitro ADME; design: from tissue; host or cells: pooled human liver microsomes; details: recombinant 2C19
[15] = system: CYP1a2 mRNA; assay: CYP mRNA expression in cultured rat hepatocytes, CYP1a2; assay type: in vitro ADME; details: 0.3 to 100 nM
[16] = molecular target: T3, CYP1A2; assay: CYP enzyme inhibition in pooled human liver microsomes, CYP1A2; details: for inhibition at 30 µM: human, microsomes, Enzyme activity (% inhibition), CYP1A2, probe Phenacetin
[17] = PHLM, concentrations up to 30 μM
[18] = 30 Minutes Pre-incubation with NADPH, PHLM
[19] = 30 Minutes Pre-incubation without NADPH, PHLM
[20] = human, pooled human liver microsomes, probe midazolam (1′-hydroxylation), 30 Minutes Pre-incubation with NADPH, probe Midazolam, PHLM
[21] = human, pooled human liver microsomes, probe midazolam (1′-hydroxylation), 30 Minutes Pre-incubation without NADPH, probe Midazolam, PHLM
[22] = human, pooled human liver microsomes, probe midazolam (1′-hydroxylation), No Pre-incubation, probe Midazolam, PHLM
[23] = human, pooled human liver microsomes, probe testosterone (6β-hydroxylation), 30 Minutes Pre-incubation with NADPH, probe Testosterone, PHLM
[24] = human, pooled human liver microsomes, probe testosterone (6β-hydroxylation), 30 Minutes Pre-incubation without NADPH, probe Testosterone, PHLM
[25] = human, pooled human liver microsomes, probe testosterone (6β-hydroxylation), No Pre-incubation, probe Testosterone, PHLM

T1 sequence (P33261 whole entry): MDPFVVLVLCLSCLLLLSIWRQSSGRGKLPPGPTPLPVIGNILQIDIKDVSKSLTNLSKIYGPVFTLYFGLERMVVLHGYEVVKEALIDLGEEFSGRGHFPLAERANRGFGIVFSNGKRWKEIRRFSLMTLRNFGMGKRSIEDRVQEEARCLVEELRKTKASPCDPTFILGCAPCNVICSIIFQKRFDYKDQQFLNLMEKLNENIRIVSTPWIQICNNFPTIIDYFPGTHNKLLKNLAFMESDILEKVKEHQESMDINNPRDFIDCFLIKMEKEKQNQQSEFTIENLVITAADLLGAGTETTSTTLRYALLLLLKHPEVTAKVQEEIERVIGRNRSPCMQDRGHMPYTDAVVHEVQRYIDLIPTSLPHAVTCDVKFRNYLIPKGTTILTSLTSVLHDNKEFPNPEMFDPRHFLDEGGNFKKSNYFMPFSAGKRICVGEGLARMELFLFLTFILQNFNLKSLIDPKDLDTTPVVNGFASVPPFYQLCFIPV
Sequence of CYP2D6 (P10635 whole entry): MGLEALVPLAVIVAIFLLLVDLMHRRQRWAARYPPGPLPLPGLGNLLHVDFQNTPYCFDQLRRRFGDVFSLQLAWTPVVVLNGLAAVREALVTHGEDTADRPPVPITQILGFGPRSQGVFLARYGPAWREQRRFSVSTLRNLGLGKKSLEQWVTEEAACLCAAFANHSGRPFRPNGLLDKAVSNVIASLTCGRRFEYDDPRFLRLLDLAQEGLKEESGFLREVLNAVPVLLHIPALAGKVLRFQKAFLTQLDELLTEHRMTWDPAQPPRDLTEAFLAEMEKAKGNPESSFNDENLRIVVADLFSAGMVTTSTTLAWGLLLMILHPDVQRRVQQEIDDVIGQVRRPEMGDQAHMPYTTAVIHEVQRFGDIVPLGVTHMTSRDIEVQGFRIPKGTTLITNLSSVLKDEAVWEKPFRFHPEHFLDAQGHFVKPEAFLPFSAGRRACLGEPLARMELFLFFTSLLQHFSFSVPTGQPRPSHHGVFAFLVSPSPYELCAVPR
Sequence of CYP2C9 (P11712 whole entry): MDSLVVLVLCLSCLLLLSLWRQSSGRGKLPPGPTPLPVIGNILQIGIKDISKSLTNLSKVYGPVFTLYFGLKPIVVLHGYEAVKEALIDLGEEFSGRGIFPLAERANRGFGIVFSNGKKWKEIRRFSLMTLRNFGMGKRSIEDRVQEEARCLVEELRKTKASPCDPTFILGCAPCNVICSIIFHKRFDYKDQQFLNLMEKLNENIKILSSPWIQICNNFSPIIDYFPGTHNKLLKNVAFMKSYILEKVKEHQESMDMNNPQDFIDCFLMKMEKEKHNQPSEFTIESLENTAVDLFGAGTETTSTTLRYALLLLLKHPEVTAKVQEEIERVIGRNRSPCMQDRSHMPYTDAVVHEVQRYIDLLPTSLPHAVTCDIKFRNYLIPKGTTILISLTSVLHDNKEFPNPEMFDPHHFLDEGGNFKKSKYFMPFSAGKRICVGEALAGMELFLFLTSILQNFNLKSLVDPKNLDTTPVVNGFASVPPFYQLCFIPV
T4 sequence (P33261 whole entry): as the sequence (P33261 whole entry) above

Structure (SMILES): COC[C@H](NC(=O)c1ccn(S(C)(=O)=O)c1)C(=O)Nc1nc(-c2cccc(N3C[C@@H](C)O[C@@H](C)C3)n2)cs1 [compound of formula (I), N-((S)-1-((4-(6-(cis-2,6-dimethylmorpholino)pyridin-2-yl)thiazol-2-yl)amino)-3-methoxy-1-oxopropan-2-yl)-1-(methylsulfonyl)-1H-pyrrole-3-carboxamide]
- % Remaining of Compound of Formula (I) ([1]; 0.1 μM): 79.9%
- % Remaining of Compound of Formula (I) ([1]; 1 μM): 100%
- growth inhibition in all the cell lines [2]: potent growth inhibition
- IC50 [3]: > 30 µM
- direct inhibitory activity (% inhibition) toward CYP2C19 [3, 17]: < 50%
- inhibition at 30 µM [3, 18]: 28.1%
- inhibition at 30 µM [3, 19]: 21.4%
- inhibition at 30 µM ([3]; No Pre-incubation, PHLM): 23.1%
- IC50 [4]: > 30 µM
- direct inhibitory activity (% inhibition) toward CYP2D6 [4, 17]: < 50%
- inhibition at 30 µM [4, 18]: 9.6%
- inhibition at 30 µM [4, 19]: 11.5%
- inhibition at 30 µM ([4]; No Pre-incubation, PHLM): 13.2%
- role of CYP3A in metabolism in human liver microsomes [5]: major CYP enzyme responsible
- % Remaining of Compound of Formula (I) [6]: 85.3%
- % Remaining of Compound of Formula (I) ([7]; 0.1 μM): 89.4%
- % Remaining of Compound of Formula (I) ([7]; 1 μM): 113%
- IC50 [8]: > 30 µM
- direct inhibitory activity (% inhibition) toward CYP2B6 [8, 17]: < 50%
- inhibition at 30 µM [8, 18]: -10%
- inhibition at 30 µM [8, 19]: -6%
- inhibition at 30 µM ([8]; No Pre-incubation, PHLM): 7.6%
- IC50 [9]: 0.00113 µM
- effect on mRNA expression of CYP2C19 [10]: minimal effect
- time-dependent inhibition of CYP3A4/5 ([11]; PHLM): weak time-dependent inhibitor
- direct inhibitory activity (% inhibition) toward CYP3A [11, 17]: < 50%
- IC50 ([11]; human, pooled human liver microsomes): > 30 µM
- inhibition at 30 min, 10 µM ([11]; human, pooled human liver microsomes, increase in CYP3A4/5 inhibition by preincubation, concentrations of ≤10 μM): < 20%
- inhibition at 10 µM [11, 20]: 25.3%
- inhibition at 30 µM [11, 20]: 40.2%
- inhibition at 10 µM [11, 21]: 6.5%
- inhibition at 30 µM [11, 21]: -1%
- inhibition at 10 µM [11, 22]: 18.2%
- inhibition at 30 µM [11, 22]: 13.6%
- inhibition at 10 µM [11, 23]: 27.4%
- inhibition at 30 µM [11, 23]: 49.3%
- inhibition at 10 µM [11, 24]: 10.5%
- inhibition at 30 µM [11, 24]: 20.8%
- inhibition at 10 µM [11, 25]: 9.7%
- inhibition at 30 µM [11, 25]: 18.4%
- role of CYP2C19 in metabolism in human liver microsomes [12]: possible involvement of CYP2C19 to a lesser extent
- binding to 249 other ATPases in cells [13]: little binding
- % Remaining of Compound of Formula (I) ([14]; 0.1 μM): 80.5%
- % Remaining of Compound of Formula (I) ([14]; 1 μM): 95.0%
- CYP1a2 mRNA expression decreased ≥50% [15]: but not CYP1a2
- IC50 [16]: > 30 µM
- direct inhibitory activity (% inhibition) toward CYP1A2 [16, 17]: < 50%
- inhibition at 30 µM [16, 18]: 11.8%
- inhibition at 30 µM [16, 19]: 8.5%
- inhibition at 30 µM ([16]; No Pre-incubation, PHLM): 11.4%
